For experiment [1], the target named is melatonin receptors in chicken retinal membranes. Description: Binding to melatonin receptors in chicken retinal membranes. Conditions: method of Dubocovich and Takahashi, read-out: Chicken retina Ki. The text has this: (§1) The results obtained for particular compounds according to the present invention are as follows:
In another experiment the test system is rabbit retina. Description: Melatonin agonist or antagonist activity in rabbit retina. Format: cell-based. The conditions noted are these: Oryctolagus cuniculus, method of Dubocovich.
Excerpt: as §1

Each structure is given as a SMILES string. Counter-ions that a name gives are not always drawn.

As a reminder, the Ki is the dissociation constant of the complex between target and ligand, obtained from inhibition or displacement. By IC50 is commonly meant the concentration needed to halve the response being measured. A higher IC50 goes with weaker potency in that assay.

With `CC(=O)NCCN1CCc2ccc3c(c21)CCCO3` [Example 2, N-[2-(2,3,8,9-Tetrahydro-7H-pyrano[2,3-g]indol-1-yl)-ethyl]-acetamide hydrochloride], in experiment [1], the Ki came to 4.92 nM. In addition, in the experiment with rabbit retina, the 50% inhibitory concentration (IC50) amounted to 0.95 nM.
The corresponding values for `CC(=O)NCCN1CCc2ccc3c(c21)CCO3` [Example 3, N-[2-(2,3,7,8-Tetrahydro-1H-furo[2,3-g]indol-1-yl)ethyl]-acetamide] are 0.42 nM and 0.04 nM.
For the molecule `CC(=O)NCCN1CCc2cc(Cl)c3c(c21)CCO3` [Example 5, N-[2-(5-Chloro-2,3,7,8-tetrahydro-1H-furo[2,3-g]indol-1-yl)-ethyl]-acetamide], in experiment [1], the Ki worked out at 3.21 nM.
As to `O=C(NCCN1CCc2ccc3c(c21)CCO3)C1CC1` [Example 6, Cyclopropanecarboxylic acid [2-(2,3,7,8-tetrahydro-1H-furo[2,3-g]indol-1-yl)-ethyl]-amide], the Ki in experiment [1] amounted to 1.68 nM. The IC50 with rabbit retina turned out to be 0.2 nM.

These data come from patent US5633276A, “Indoline derivatives, method of preparation and use” (Glaxo Group Limited, priority 1993, dated 1997).
